Experiments:
[1] = tested on: B16F10, 4T1 or CT26 cells; test: Cell proliferation assay; type: cell-based, mouse; conditions: C176 at 1 μM; 12-48 hours
Description: Cell proliferation assay: Cell proliferation was determined by seeding of 5×10^3 B16F10, 4T1 or CT26 cells in 6 well plates in triplicate. Cells were treated with C176 at 1 μM (Probechem, China) or DMSO control. Thereafter cells were counted in triplicate at 12, 24, 36, and 48 hours using trypan blue staining and the EVE™ automated cell counter (NanoEnTek, South Korea).

B16F10 cells = conditions: 1 μM C-176, 48 hours
Description: RNA was extracted using the RNeasy Mini Kit (Qiagen, Hilden, Germany, 74104). Non-strand-specific paired end sequencing libraries were generated with TruSeq Stranded mRNA (Illumina, San Diego, CA, 20020594) and sequenced on the Illumina NovaSeq platform. Reads were mapped to the mouse reference GRCm38 with the Broad Picard Pipeline (broadinstitute.github.io/picard/). […] Differential analysis was performed by DESeq2 (v1.24.0) as described by Love, M. I., et al., Genome Biol. 15: 550 (2014), the totality of which is incorporated herein by reference. Gene set enrichment analysis was performed on the normalized reads estimated by DESeq2.

murine STING isoform = molecular target: T1, murine STING isoform (Mus musculus, UniProt Q3TBT3); test: Immunoblots of phosphorylated p65, RelB and IRF3 in C-176 treated tumor cells; type: cell-based
T1 construct: endogenous in cells
T1 sequence (Q3TBT3 1-378): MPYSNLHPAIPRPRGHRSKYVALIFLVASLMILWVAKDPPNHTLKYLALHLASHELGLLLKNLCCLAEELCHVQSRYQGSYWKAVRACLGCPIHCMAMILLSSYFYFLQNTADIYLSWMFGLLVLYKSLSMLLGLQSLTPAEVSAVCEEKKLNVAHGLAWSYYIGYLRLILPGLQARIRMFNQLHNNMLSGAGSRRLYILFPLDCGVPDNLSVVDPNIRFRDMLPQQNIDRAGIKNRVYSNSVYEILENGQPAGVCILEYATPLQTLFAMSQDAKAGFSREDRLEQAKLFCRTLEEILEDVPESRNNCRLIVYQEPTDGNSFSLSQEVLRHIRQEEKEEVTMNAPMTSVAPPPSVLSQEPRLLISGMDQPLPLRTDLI
Description: Immunoblotting: Cells were pelleted and lysed using RIPA buffer. Protein concentration was determined using BCA protein assay and 20-30 μg total protein were loaded in each lane. Proteins were separated by gradient SDS-PAGE and transferred to PVDF or nitrocellulose membranes. See Table 2 for antibody information. Membranes were imaged using the LI-COR Odyssey software. Relative STING protein levels were quantified by measuring band intensities on immunoblots using Image J software, background was subtracted and normalized to loading control. […] Cells were washed with ice-cold PBS and harvested using radio-immunoprecipitation assay (RIPA) lysis buffer containing protease and phosphatase inhibitors (Roche, Basel, Switzerland). Cells were lysed with a probe sonicator for 20 s. Protein quantification was performed using Pierce™ Rapid Gold BCA Protein Assay Kit (Thermo Fisher Scientific, Waltham, MA). Proteins were reduced at 95° C. for 5 mins with NuPAGE™ LDS Sample Buffer (4×) containing NuPAGE™ Sample Reducing Agent (10×). Lysates (40 μg protein/well) were resolved on NuPAGE™ 4-12% Bis-Tris Protein Gels (Invitro-gen) and transferred to polyvinylidene difluoride (PVDF) membranes (Thermo Fisher Scientific, Waltham, MA) using a wet transfer system. […] Images were captured by ChemiDoc Imaging Systems (Bio-Rad, UK) and densitometries were determined by ImageJ.

STING = molecular target: T2, STING (Mus musculus, UniProt Q3TBT3); test: ISG expression in cGAMP-transfected Cgas-KO 4T1 cells with or without C-176; type: cell-based; conditions: in the presence of C-176
T2 construct: endogenous in cells; host or cells: Cgas-KO 4T1 cells (mouse mammary carcinoma; parental line from ATCC)
T2 sequence (Q3TBT3 1-378): T1 sequence (Q3TBT3 1-378)
Description: Quantitative PCR for STING inhibition study: RNA was extracted from cells with Trizol (Invitrogen, Carlsbad, CA, #15596026). cDNA was synthesized using the RNA to cDNA EcoDry™ Premix (Double Primed) kit (Takara #639549). Real-time PCR was performed to measure the relative mRNA expression levels of ISGs and the control GAPDH using Luna® Universal qPCR Master Mix (NEB, IPSWICH, MA, M3003L). The qPCR reaction and analysis were performed on a QuantStudio 6 platform (Life technology, Carlsbad, CA). The sequence of primers for Ccl5 is 5′-[sequence]-3′ and 5′-[sequence]-3′. […] The sequence for primers for Gapdh is 5′-[sequence]-3′ and 5′-[sequence]-3′.

CT26 cells = test: Tail vein inoculation of CT26 cells in BALB/c mice, metastasis and survival; type: in vivo, mouse
Description: Animal metastasis studies: Animal experiments were performed in accordance with protocols approved by the MSKCC Institutional Animal Care and Use Committee. […] There was no need to randomize animals. Investigators were not blinded to group allocation. For tail vein injections, 5×10^4 4T1, 2.5×10^4 B16F10, or 10^5 CT26 cells were injected into the tail vein of 6-7-week old BALB/c (4T1 and CT26) or C57BL/6 (B16F10) mice. Metastasis was primarily assessed through overall survival. Overall survival endpoint was met when the mice died or met the criteria for euthanasia under the IACUC protocol. Animals were censored when death was confirmed to have occurred due to metastasis-unrelated causes such as injury or death during injection, surgery, or anesthesia. Surface lung metastases were assessed at endpoint by direct visual examination after euthanasia at which points lungs were perfused and fixed in 4% paraformaldehyde (4T1 and B16F10 experiments) or stained using India-ink (CT26 experiments). […] H-151 was reconstituted in DMSO with concentration of 100 mM. Each mouse was injected intraperitoneally with 7.5 μL of H-151 stock solution in 200 μL of PBS with 0.1% Tween −80.

B16F10, 4T1, and CT26 = test: Wound scratch assay for cell migration; type: cell-based, mouse; conditions: C176 at 1 μM; all three metastatic cancer cell lines
Description: Wound scratch assay for cell migration: Tumor cell lines B16F10, 4T1, and CT26 were seeded in 6 well plates. When cells reached>90% confluence they were treated with 0.5 μM mitomycin C (M4287, Sigma-Aldrich, St. Louis, MO) for 2 hours, after which a wound was formed using a sterile p200 pipette tip. Thereafter cells were washed once with fresh media, following by treatment with C176 at 1 μM (Probechem, China) or DMSO control in media containing 1% FBS. Images were obtained at 0, 4, 8, and 12 hours using Olympus CKX53 microscope at 4× magnification. The wound surface area was measured and quantified using ImageJ software (MRI Wound Healing tool-dev.mri.cnrs.fr/projects/imagej-macros/wiki/Wound_Healing_Tool).

O=C(Nc1ccc(I)cc1)c1ccc([N+](=O)[O-])o1 [C-176]
cellular proliferation [1]: did not impact cellular proliferation | baseline expression of inflammation-related genes (Ccl5, Cxcl10, Isg15) (B16F10 cells): significant reductions | expression of STING-dependent genes (B16F10 cells): significantly reduced | gene set enrichment analysis (GSEA) pathways (B16F10 cells): downregulation of pathways related to inflammation and of genes involved in the epithelial-to-mesenchymal transition (EMT) | phosphorylated pools of the NF-κB transcription factors p65 and RelB (murine STING isoform; baseline, B16F10, 4T1, CT26 cells): significant reductions | IRF3 phosphorylation (murine STING isoform; upon transfection of 20 μg/ml cGAMP): suppressed | effect on ISG induction by cGAMP transfection (STING): suppressed | number of CT26 lung metastasis (CT26 cells; 13 days after tail vein injection, daily IP): significant reduction | survival of tumor bearing mice (CT26 cells; CT26, BALB/c, IP, vs vehicle): significantly prolonged survival | migration (B16F10, 4T1, and CT26): significant reductions

Reference: US20230324392A1, “METHODS AND COMPOSITIONS FOR TARGETING CYTOSOLIC DSDNA SIGNALING IN CHROMOSOMALLY UNSTABLE CANCERS” (MEMORIAL SLOAN KETTERING CANCER CENTER, priority 2020, published 2023)
